Like-named read-outs stand apart in the source and are kept apart here.
What was measured:
P. aeruginosa [1] = assay: Bacterial CFU accumulation in the C. elegans gut; type: in vivo, Caenorhabditis elegans
Procedure: (§1) Wild-type N2 C. elegans and the glp-4 conditionally sterile mutant strain were obtained from the Caenorhabditis Genetics Center. Liquid killing assays were conducted using glp-4 mutant worms as described previously ([35]), with the exception of survival being scored manually under a Zeiss light microscope instead of via Sytox Orange staining. Nematodes were scored as dead when they no longer moved when tapped. Solid killing was conducted using glp-4 as described previously ([34]), with the indicated concentration of inhibitor impregnated into the SK agar. Bacterial CFU accumulation in WT N2 worms was quantified as described previously ([56]). Briefly, age-synchronized embryos were spotted onto bacterium-seeded nematode growth medium (NGM) agar plates impregnated with inhibitor or DMSO. Embryos were incubated at 25°C for 3 days, after which point adult worms were harvested, washed, lysed, and enumerated for CFU.

[2] = design: method as in PMID 29084601, PMID 24703913, PMID 30024944; settings: rats, 5 to 10 mg/kg of body weight daily for up to 8 weeks; cited from earlier work
P. aeruginosa [3] = assay: C. elegans solid-phase slow killing (SK) infection assay; type: in vivo, Caenorhabditis elegans; settings: 100 μM gallein
Procedure: as §1

[4] = mice, 5 to 10 mg/kg of body weight daily for up to 8 weeks; cited from earlier work
P. aeruginosa PA14 = assay: Swimming motility assay; type: cell-based, Pseudomonas aeruginosa
Procedure: Swimming motility plates consisted of 0.3% (wt/vol) Bacto agar (Becton Dickinson) and 2.5% (wt/vol) LB (Miller; Bioshop). Where indicated, 100 μM compound or an equivalent volume of DMSO was added to the agar prior to pouring. Plates were stab inoculated with a pipette tip dipped in overnight LB culture. Plates were incubated in sealed Tupperware at 30°C for 18 h, and swimming diameter was imaged and measured electronically.

P. aeruginosa PPK2C = biological target: T1, P. aeruginosa PPK2C (Pseudomonas aeruginosa, UniProt Q9HYF1); assay: PPK2C AMP phosphorylation by polyP (ADP synthesis), toluidine blue detection; type: biochemical; settings: ADP synthesis from AMP and polyP; 275 nM enzyme; read-out: IC50 PPK2C
T1 construct: MBP (N, cleaved yes); His tag (N, cleaved yes); made in house; host or cells: E. coli BL21(DE3)
T1 sequence (Q9HYF1 whole entry): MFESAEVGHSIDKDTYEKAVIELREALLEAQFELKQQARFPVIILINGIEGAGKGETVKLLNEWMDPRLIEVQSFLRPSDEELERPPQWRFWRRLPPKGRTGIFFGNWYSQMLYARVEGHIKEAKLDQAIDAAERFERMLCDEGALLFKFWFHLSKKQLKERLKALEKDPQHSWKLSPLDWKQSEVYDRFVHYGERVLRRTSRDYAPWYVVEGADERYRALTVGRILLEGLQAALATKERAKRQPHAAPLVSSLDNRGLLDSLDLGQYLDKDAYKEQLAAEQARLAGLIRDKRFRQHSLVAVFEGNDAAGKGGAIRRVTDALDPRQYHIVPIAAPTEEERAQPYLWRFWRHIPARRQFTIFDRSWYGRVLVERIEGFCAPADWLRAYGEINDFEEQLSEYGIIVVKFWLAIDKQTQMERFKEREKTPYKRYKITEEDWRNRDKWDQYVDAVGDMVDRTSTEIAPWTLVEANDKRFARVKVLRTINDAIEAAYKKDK
Procedure: All IC50 and kinetic assay mixtures contained equimolar amounts (275 nM) of PPK to ensure valid comparison between different enzymes. PolyP synthesis activity (for PPK1 and PPK2B) was assayed using the reaction buffer and conditions described above. ATP concentration was varied as indicated for kinetic experiments. Curves were fit using GraphPad Prism V9.
Nucleotide phosphorylation activity of PPK2 enzymes was assayed in buffer containing 50 mM Tris-HCl, pH 7.5, 10 mM (NH4)2SO4, 10 mM MgCl2, 5 mM polyP45 (Sigma; in terms of individual Pi monomers), and nucleotide (ADP or AMP) at 5 mM for IC50 reactions or as indicated for kinetic experiments. Enzyme was added to a final concentration of 275 nM in 100-μl reaction volumes. One-hundred-microliter reaction mixtures were incubated at 37°C for 30 min, and then 5-μl aliquots were withdrawn and added to 1,000 μl of 6-mg/liter toluidine blue dissolved in 40 mM acetic acid to quench the reaction and quantify the polyP that remained. The A630/530 nm ratio was then recorded, and the values obtained were corrected by subtracting the corresponding blanks (all ingredients except enzyme). The amount of polyP consumed was calculated by subtracting the amount present after reaction from that present in the initial reaction mix, as calculated via a standard curve. Each monomer of Pi consumed from polyP equates to one nucleoside phosphorylated. Curves were fit using GraphPad Prism V9.

human protein kinases = assay: Counterscreen against human protein kinases, [33P]ATP filter-binding assay; type: biochemical; settings: 10 μM gallein, array of divergent human kinases
Procedure: Toxicity is always a major concern with kinase inhibitors, even though the absence of PPK homologues in mammals makes these enzymes particularly attractive therapeutic targets ([1], [11]). Cytotoxicity of the inhibitors was therefore assessed in cultured human embryonic kidney (HEK) […] cells via standard trypan blue viability assays ([36]). While the initial hit RT1 reduced cell viability by ∼60%, gallein was noncytotoxic at concentrations up to 100 μM (Fig. 6A). Gallein was also counterscreened against an array of divergent human kinases available at the International Centre for Kinase Profiling (University of Dundee), as described previously ([37]).
FIG 6 Gallein avoids off-target toxicity. (A) HEK cell cytotoxicity assay. Viability determined via trypan blue staining following 48 h of incubation with compounds. (B) Counterscreen for inhibition of human protein kinases by 10 μM gallein via radioactive ([^33P]ATP) filter-binding assay performed by the University of Dundee MRC PPU ([26]). (A) ns, P > 0.05; *, P < 0.05 (one-way ANOVA, Tukey’s multiple-comparison test, n = 3).

[5] = WT: DMSO control vs 100 µM gallein

SMILES: O=C1OC2(c3ccccc31)c1ccc(O)c(O)c1Oc1c2ccc(O)c1O [RT4 (gallein), gallein]
- bacterial accumulation in the nematode gut (P. aeruginosa [1]; WT strain): reduced bacterial accumulation in the nematode gut
- C. elegans accumulation CFU, Mean Diff. (P. aeruginosa [1]; [5]): 783.3
- bacterial accumulation in the nematode gut (CFU) (P. aeruginosa [1]; ΔpolyP strain): no additional decrease in CFU
- bacterial accumulation in the nematode gut (P. aeruginosa [1]; Δppk1 strain): further reduced bacterial accumulation
- C. elegans accumulation CFU, Mean Diff. (P. aeruginosa [1]; ∆polyP: DMSO control vs 100 µM gallein): -33.33
- C. elegans accumulation CFU, Mean Diff. (P. aeruginosa [1]; ∆ppk1: DMSO control vs 100 µM gallein): 446.7
- adverse effects [2]: no adverse effects
- C. elegans survival (P. aeruginosa [3]): significantly improved survival rates
- adverse effects [4]: no adverse effects
- flagellum-based swimming motility (P. aeruginosa PA14; WT, 100 μM in agar): faithfully reproduced in WT P. aeruginosa the defect in flagellum-based swimming motility observed in the ΔpolyP strain
- swimming motility, Mean Diff. (P. aeruginosa PA14; [5]): 2
- swimming motility, Mean Diff. (P. aeruginosa PA14; Δppk1, 2a, 2b, 2c: DMSO control vs 100 µM gallein): -0.1
- swimming motility, Mean Diff. (P. aeruginosa PA14; Δppk1: DMSO control vs 100 µM gallein): 1.05
- swimming motility, Mean Diff. (P. aeruginosa PA14; Δppk2a, 2b, 2c: DMSO control vs 100 µM gallein): 0.65
- IC50 (P. aeruginosa PPK2C): 165 ± 5 µM
- loss of activity of human kinases (human protein kinases): ≤ 25%
